Source: ChEMBL document CHEMBL5649169 (ChemMedChem, 2018)

Key:
[1] = target: Lamina-associated polypeptide 2, isoform alpha (Homo sapiens) (UniProt P42166); also: assay method not described here
[2] = target: Mitochondrial 2-oxoglutarate/malate carrier protein (Homo sapiens) (UniProt Q02978); also: assay method not described here
[3] = target: Large ribosomal subunit protein uL14 (Homo sapiens) (UniProt P62829); also: assay method not described here
[4] = target: Cytoplasmic FMR1-interacting protein 1 (Homo sapiens) (UniProt Q7L576); also: assay method not described here
[5] = target: Ribosyldihydronicotinamide dehydrogenase [quinone] (Homo sapiens) (UniProt P16083); also: assay method not described here
[6] = target: CCR4-NOT transcription complex subunit 1 (Homo sapiens) (UniProt A5YKK6); also: assay method not described here
[7] = target: E3 ubiquitin-protein ligase UBR4 (Homo sapiens) (UniProt Q5T4S7); also: assay method not described here
[8] = target: DDB1- and CUL4-associated factor 7 (Homo sapiens) (UniProt P61962); also: assay method not described here
[9] = target: Small ribosomal subunit protein eS19 (Homo sapiens) (UniProt P39019); also: assay method not described here
[10] = target: Amino acid transporter heavy chain SLC3A2 (Homo sapiens) (UniProt P08195); also: assay method not described here
[11] = target: Small ribosomal subunit protein eS4, X isoform (Homo sapiens) (UniProt P62701); also: assay method not described here
[12] = target: Inhibitor of nuclear factor kappa-B kinase subunit epsilon (Homo sapiens) (UniProt Q14164); also: assay method not described here
[13] = target: Small ribosomal subunit protein uS5 (Homo sapiens) (UniProt P15880); also: assay method not described here
[14] = target: Translation initiation factor eIF2B subunit gamma (Homo sapiens) (UniProt Q9NR50); also: assay method not described here
[15] = target: Nucleophosmin (Homo sapiens) (UniProt P06748); also: assay method not described here
[16] = target: Transcription factor A, mitochondrial (Homo sapiens) (UniProt Q00059); also: assay method not described here
[17] = target: ATP-dependent 6-phosphofructokinase, liver type (Homo sapiens) (UniProt P17858); also: assay method not described here
[18] = target: Monocarboxylate transporter 4 (Homo sapiens) (UniProt O15427); also: assay method not described here
[19] = target: Nucleolar and coiled-body phosphoprotein 1 (Homo sapiens) (UniProt Q14978); also: assay method not described here
[20] = target: Transmembrane emp24 domain-containing protein 9 (Homo sapiens) (UniProt Q9BVK6); also: assay method not described here
[21] = target: Heterogeneous nuclear ribonucleoproteins A2/B1 (Homo sapiens) (UniProt P22626); also: assay method not described here
[22] = target: Serine/threonine-protein kinase TAO3 (Homo sapiens) (UniProt Q9H2K8); also: assay method not described here
[23] = target: Cell division cycle protein 23 homolog (Homo sapiens) (UniProt Q9UJX2); also: assay method not described here
[24] = target: Large ribosomal subunit protein uL18 (Homo sapiens) (UniProt P46777); also: assay method not described here
[25] = target: Unhealthy ribosome biogenesis protein 2 homolog (Homo sapiens) (UniProt Q14146); also: assay method not described here
[26] = target: Putative divalent cation/proton antiporter TMEM165 (Homo sapiens) (UniProt Q9HC07); also: assay method not described here
Cullin-1 (Homo sapiens) = Cullin-1 (Homo sapiens) (UniProt Q13616); also: assay method not described here
[27] = target: MAP kinase-activated protein kinase 5 (Homo sapiens) (UniProt Q8IW41); also: assay method not described here
[28] = target: Extended synaptotagmin-1 (Homo sapiens) (UniProt Q9BSJ8); also: assay method not described here
[29] = target: Serine/arginine-rich splicing factor 7 (Homo sapiens) (UniProt Q16629); also: assay method not described here
[30] = target: Mediator of RNA polymerase II transcription subunit 23 (Homo sapiens) (UniProt Q9ULK4); also: assay method not described here
[31] = target: Eukaryotic translation initiation factor 3 subunit A (Homo sapiens) (UniProt Q14152); also: assay method not described here
[32] = target: Serrate RNA effector molecule homolog (Homo sapiens) (UniProt Q9BXP5); also: assay method not described here
[33] = target: Neutral amino acid transporter B(0) (Homo sapiens) (UniProt Q15758); also: assay method not described here
[34] = target: V-type proton ATPase subunit G 1 (Homo sapiens) (UniProt O75348); also: assay method not described here
[35] = target: Serine/threonine-protein kinase ATR (Homo sapiens) (UniProt Q13535); also: assay method not described here
[36] = target: Mitogen-activated protein kinase kinase kinase 1 (Homo sapiens) (UniProt Q13233); also: assay method not described here
[37] = target: Endoplasmic reticulum junction formation protein lunapark (Homo sapiens) (UniProt Q9C0E8); also: assay method not described here
[38] = target: Transitional endoplasmic reticulum ATPase (Homo sapiens) (UniProt P55072); also: assay method not described here
[39] = target: cAMP-dependent protein kinase type II-alpha regulatory subunit (Homo sapiens) (UniProt P13861); also: assay method not described here
[40] = target: ATPase family AAA domain-containing protein 3A (Homo sapiens) (UniProt Q9NVI7); also: assay method not described here
[41] = target: Exocyst complex component 4 (Homo sapiens) (UniProt Q96A65); also: assay method not described here
[42] = target: Splicing factor 3B subunit 3 (Homo sapiens) (UniProt Q15393); also: assay method not described here
Ephrin type-B receptor 6 = Ephrin type-B receptor 6 (Homo sapiens, UniProt O15197); assay: Inhibition of Nano Luc-fused full length C-terminal EPHB6 (unknown origin) expressed in HEK293T cells using NanoGlo as substrate incubated for 2 hrs in presence of tracer by NanoBRET assay; assay type: cell-based

Mitogen-activated protein kinase kinase kinase 1 (Homo sapiens), sequence (Q13233 whole entry): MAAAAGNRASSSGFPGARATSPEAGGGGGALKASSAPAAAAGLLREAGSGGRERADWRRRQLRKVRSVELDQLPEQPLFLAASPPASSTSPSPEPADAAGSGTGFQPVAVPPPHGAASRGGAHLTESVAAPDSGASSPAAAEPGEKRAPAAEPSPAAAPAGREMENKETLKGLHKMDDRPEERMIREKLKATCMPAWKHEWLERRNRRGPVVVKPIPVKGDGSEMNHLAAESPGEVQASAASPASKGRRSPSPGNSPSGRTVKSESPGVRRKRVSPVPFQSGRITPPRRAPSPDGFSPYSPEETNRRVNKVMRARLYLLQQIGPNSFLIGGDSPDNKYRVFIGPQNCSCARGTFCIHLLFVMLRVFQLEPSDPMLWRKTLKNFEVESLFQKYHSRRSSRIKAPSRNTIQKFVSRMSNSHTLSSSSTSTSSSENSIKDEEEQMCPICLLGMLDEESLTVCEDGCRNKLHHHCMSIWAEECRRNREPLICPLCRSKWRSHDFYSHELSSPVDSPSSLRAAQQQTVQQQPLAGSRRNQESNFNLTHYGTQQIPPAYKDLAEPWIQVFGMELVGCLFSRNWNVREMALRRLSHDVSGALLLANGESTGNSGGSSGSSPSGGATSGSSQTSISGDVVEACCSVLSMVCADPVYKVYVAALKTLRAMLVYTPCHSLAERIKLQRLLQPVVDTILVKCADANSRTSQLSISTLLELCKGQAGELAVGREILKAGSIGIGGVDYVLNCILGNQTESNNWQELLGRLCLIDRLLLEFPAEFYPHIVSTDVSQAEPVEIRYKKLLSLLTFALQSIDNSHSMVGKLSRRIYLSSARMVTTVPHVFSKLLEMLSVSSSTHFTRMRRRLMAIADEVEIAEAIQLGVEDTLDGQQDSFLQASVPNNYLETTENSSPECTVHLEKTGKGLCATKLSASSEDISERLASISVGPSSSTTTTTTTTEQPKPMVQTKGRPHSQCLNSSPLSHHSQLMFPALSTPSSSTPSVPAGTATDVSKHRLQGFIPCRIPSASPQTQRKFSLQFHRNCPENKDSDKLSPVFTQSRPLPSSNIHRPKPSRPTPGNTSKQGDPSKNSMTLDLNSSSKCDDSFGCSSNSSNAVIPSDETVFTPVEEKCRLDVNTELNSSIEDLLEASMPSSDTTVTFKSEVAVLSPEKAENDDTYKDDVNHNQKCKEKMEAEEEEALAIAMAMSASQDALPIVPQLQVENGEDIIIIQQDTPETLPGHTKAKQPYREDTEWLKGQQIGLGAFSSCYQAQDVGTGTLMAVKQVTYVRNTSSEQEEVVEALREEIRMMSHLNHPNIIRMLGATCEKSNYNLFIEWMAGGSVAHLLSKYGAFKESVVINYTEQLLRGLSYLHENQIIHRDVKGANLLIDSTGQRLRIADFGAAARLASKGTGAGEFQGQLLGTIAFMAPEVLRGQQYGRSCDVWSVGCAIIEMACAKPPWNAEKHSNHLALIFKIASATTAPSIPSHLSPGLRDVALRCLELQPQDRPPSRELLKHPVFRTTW
Translation initiation factor eIF2B subunit gamma (Homo sapiens), sequence (Q9NR50 whole entry): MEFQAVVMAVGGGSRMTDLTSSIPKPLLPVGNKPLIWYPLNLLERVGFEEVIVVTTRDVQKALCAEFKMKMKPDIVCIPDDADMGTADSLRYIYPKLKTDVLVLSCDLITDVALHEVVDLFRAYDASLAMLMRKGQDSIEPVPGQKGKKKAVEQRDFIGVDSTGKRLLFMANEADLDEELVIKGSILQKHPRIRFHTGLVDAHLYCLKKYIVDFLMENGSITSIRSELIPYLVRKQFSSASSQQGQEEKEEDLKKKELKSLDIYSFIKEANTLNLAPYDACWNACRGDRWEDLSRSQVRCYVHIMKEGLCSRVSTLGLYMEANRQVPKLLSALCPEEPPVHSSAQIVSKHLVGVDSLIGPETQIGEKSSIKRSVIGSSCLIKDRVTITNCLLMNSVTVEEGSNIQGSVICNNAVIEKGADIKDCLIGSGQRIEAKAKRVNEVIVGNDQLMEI
Mediator of RNA polymerase II transcription subunit 23 (Homo sapiens), sequence (Q9ULK4 whole entry): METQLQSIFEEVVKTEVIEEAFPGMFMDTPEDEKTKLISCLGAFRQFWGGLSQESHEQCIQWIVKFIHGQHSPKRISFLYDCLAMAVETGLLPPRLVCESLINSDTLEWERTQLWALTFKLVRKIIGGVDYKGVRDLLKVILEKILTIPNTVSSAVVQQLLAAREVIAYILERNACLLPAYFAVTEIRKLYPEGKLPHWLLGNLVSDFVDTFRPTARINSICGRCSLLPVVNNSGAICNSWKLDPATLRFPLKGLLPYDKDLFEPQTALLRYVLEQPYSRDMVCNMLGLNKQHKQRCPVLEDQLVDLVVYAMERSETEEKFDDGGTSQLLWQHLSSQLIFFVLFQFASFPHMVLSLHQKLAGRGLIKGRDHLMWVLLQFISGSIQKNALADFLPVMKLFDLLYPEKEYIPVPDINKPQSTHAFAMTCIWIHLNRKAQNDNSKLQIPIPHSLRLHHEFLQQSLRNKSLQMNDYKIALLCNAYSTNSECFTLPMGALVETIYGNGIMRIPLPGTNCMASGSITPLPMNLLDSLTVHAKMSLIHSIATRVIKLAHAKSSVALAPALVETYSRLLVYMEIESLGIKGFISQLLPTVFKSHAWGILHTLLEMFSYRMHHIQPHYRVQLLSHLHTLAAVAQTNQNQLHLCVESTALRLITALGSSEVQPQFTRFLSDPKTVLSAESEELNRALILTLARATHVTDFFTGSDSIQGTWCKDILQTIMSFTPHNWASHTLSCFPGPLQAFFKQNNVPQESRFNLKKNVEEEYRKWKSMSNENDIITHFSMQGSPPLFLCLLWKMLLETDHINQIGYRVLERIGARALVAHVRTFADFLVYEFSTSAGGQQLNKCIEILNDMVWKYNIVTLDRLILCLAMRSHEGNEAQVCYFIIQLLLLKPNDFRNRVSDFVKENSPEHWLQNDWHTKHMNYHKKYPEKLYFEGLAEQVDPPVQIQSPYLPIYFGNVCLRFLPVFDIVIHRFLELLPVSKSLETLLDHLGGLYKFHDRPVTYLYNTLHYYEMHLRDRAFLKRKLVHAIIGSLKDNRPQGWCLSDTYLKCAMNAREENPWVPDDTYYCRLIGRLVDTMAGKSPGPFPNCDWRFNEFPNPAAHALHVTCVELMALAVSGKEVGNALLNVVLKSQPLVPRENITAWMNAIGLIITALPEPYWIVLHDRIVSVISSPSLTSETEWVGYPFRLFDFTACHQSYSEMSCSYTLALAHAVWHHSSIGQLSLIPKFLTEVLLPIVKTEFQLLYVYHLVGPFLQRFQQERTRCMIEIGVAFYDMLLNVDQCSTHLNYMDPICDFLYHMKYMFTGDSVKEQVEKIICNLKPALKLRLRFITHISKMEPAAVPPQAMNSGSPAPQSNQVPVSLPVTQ
Putative divalent cation/proton antiporter TMEM165 (Homo sapiens), sequence (Q9HC07 whole entry): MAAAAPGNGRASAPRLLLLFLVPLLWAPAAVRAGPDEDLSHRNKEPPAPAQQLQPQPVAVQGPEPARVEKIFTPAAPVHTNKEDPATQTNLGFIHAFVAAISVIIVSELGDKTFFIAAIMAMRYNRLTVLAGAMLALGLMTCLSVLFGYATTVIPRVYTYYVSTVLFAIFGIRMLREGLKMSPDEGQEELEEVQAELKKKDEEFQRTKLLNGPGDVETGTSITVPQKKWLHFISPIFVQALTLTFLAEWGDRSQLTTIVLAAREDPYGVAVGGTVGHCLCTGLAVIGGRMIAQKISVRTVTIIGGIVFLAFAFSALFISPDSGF
Cullin-1 (Homo sapiens), sequence (Q13616 whole entry): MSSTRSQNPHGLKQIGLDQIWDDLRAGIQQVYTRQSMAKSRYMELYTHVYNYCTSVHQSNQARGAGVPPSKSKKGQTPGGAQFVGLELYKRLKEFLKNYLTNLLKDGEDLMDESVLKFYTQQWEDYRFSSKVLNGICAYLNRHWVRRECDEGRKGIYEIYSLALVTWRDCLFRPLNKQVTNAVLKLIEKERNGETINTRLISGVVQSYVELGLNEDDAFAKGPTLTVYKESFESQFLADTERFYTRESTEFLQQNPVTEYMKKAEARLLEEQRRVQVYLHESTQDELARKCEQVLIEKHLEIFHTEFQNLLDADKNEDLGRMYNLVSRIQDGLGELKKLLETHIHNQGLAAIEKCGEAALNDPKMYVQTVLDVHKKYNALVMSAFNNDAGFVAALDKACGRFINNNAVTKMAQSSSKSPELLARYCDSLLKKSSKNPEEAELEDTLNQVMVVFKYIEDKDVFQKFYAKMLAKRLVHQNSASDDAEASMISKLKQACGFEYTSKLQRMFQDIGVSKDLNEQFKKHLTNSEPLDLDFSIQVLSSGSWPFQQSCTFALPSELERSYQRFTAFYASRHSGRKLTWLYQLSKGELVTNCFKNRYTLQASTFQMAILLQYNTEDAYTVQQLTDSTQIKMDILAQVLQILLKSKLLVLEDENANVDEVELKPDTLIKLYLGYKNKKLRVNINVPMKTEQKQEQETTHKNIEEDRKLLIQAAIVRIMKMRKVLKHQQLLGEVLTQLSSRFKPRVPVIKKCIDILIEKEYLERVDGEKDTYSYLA
DDB1- and CUL4-associated factor 7 (Homo sapiens), sequence (P61962 whole entry): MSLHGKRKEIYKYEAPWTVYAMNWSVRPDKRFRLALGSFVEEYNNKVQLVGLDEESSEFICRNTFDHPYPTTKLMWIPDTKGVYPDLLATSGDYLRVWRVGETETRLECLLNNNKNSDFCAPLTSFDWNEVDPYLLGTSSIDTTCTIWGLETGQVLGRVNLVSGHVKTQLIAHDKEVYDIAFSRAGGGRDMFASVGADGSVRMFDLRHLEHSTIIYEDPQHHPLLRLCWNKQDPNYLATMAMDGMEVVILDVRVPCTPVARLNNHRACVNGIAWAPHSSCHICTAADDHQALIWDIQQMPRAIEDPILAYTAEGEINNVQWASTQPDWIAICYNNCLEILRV
Transcription factor A, mitochondrial (Homo sapiens), sequence (Q00059 whole entry): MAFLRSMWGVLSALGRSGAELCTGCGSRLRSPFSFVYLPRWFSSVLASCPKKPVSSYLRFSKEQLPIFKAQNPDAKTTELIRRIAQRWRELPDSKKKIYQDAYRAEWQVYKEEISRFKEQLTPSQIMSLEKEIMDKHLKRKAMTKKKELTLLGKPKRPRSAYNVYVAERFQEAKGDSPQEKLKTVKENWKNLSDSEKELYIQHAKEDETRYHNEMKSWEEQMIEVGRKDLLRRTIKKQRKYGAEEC

**Q.** `Cc1ccc(C(=O)Nc2cccc(C(F)(F)F)c2)cc1Nc1nc(-c2cccnc2)nc2nn(C)cc12` was tested. Which ED50 [1] did it give?
**A.** 6.61 µM

**Q.** What about the ED50 [2] of the same compound?
**A.** 0.00199 µM

**Q.** What about the ED50 [3] of the same compound?
**A.** 7.5 µM

**Q.** What about the ED50 [4] of the same compound?
**A.** 2.75 µM

**Q.** What about the ED50 [5] of the same compound?
**A.** 4.12 µM

**Q.** What about the ED50 [6] of the same compound?
**A.** 0.0203 µM

**Q.** And the ED50 [7]?
**A.** 0.593 µM

**Q.** And the ED50 [8]?
**A.** 0.184 µM

**Q.** And the ED50 [9]?
**A.** 0.199 µM

**Q.** And the ED50 [10]?
**A.** 0.362 µM

**Q.** And the ED50 [11]?
**A.** 0.515 µM

**Q.** And the ED50 [12]?
**A.** 9.31 µM

**Q.** What about the ED50 [13] of the same compound?
**A.** 1.83 µM

**Q.** And the ED50 [14]?
**A.** 0.332 µM

**Q.** What about the ED50 [15] of the same compound?
**A.** 104 µM

**Q.** What about the ED50 [16] of the same compound?
**A.** 0.0487 µM

**Q.** What about the ED50 [17] of the same compound?
**A.** 0.0338 µM

**Q.** And the ED50 [18]?
**A.** 2.74 µM

**Q.** What about the ED50 [19] of the same compound?
**A.** 0.178 µM

**Q.** And the ED50 [20]?
**A.** 0.00396 µM

**Q.** What about the ED50 [21] of the same compound?
**A.** 0.0115 µM

**Q.** And the ED50 [22]?
**A.** 0.0641 µM

**Q.** And the ED50 [23]?
**A.** 2.59 µM

**Q.** What about the ED50 [24] of the same compound?
**A.** 11.5 µM

**Q.** What about the ED50 [25] of the same compound?
**A.** 2.12 µM

**Q.** And the ED50 [26]?
**A.** 0.0171 µM

**Q.** And the ED50 (Cullin-1 (Homo sapiens))?
**A.** 0.0051 µM

**Q.** And the ED50 [27]?
**A.** 0.047 µM

**Q.** And the ED50 [28]?
**A.** 6850 µM

**Q.** And the ED50 [29]?
**A.** 0.258 µM

**Q.** What about the ED50 [30] of the same compound?
**A.** 4.73 µM

**Q.** What about the ED50 [31] of the same compound?
**A.** 0.0765 µM

**Q.** What about the ED50 [32] of the same compound?
**A.** 1.29 µM

**Q.** What about the ED50 [33] of the same compound?
**A.** 0.032 µM

**Q.** And the ED50 [34]?
**A.** 9.38 µM

**Q.** And the ED50 [35]?
**A.** 0.0106 µM

**Q.** What about the ED50 [36] of the same compound?
**A.** 3.34 µM

**Q.** What about the ED50 [37] of the same compound?
**A.** 0.287 µM

**Q.** What about the ED50 [38] of the same compound?
**A.** 0.0706 µM

**Q.** What about the ED50 [39] of the same compound?
**A.** 0.325 µM

**Q.** What about the ED50 [40] of the same compound?
**A.** 7.99 µM

**Q.** And the ED50 [41]?
**A.** 0.0488 µM

**Q.** And the ED50 [42]?
**A.** 6.08 µM

**Q.** What about the IC50 (Ephrin type-B receptor 6) of the same compound?
**A.** > 50 µM

**Q.** With `Cc1ccc(C(=O)Nc2cccc(C(F)(F)F)c2)cc1Nc1nc(-c2cccnc2)nc2c1cnn2C` as the compound, how does the ED50 [1] read?
**A.** 3.35 µM

**Q.** And the ED50 [2]?
**A.** 0.0531 µM

**Q.** What about the ED50 [3] of the same compound?
**A.** 11.7 µM

**Q.** And the ED50 [4]?
**A.** 0.00564 µM

**Q.** And the ED50 [5]?
**A.** 0.0365 µM

**Q.** And the ED50 [6]?
**A.** 0.0688 µM

**Q.** What about the ED50 [7] of the same compound?
**A.** 0.00366 µM

**Q.** What about the ED50 [8] of the same compound?
**A.** 1.12 µM

**Q.** And the ED50 [9]?
**A.** 0.645 µM

**Q.** What about the ED50 [10] of the same compound?
**A.** 5.57 µM

**Q.** What about the ED50 [11] of the same compound?
**A.** 0.0296 µM

**Q.** And the ED50 [12]?
**A.** 0.123 µM

**Q.** What about the ED50 [13] of the same compound?
**A.** 0.0804 µM

**Q.** And the ED50 [14]?
**A.** 10.3 µM

**Q.** And the ED50 [15]?
**A.** 0.00826 µM

**Q.** And the ED50 [16]?
**A.** 17 µM

**Q.** What about the ED50 [17] of the same compound?
**A.** 111 µM

**Q.** What about the ED50 [18] of the same compound?
**A.** 4.22 µM

**Q.** And the ED50 [19]?
**A.** 0.0139 µM

**Q.** And the ED50 [20]?
**A.** 67.9 µM

**Q.** What about the ED50 [21] of the same compound?
**A.** 0.0823 µM

**Q.** What about the ED50 [22] of the same compound?
**A.** 5.85 µM

**Q.** And the ED50 [23]?
**A.** 0.0535 µM

**Q.** What about the ED50 [24] of the same compound?
**A.** 0.862 µM

**Q.** What about the ED50 [25] of the same compound?
**A.** 2.88 µM

**Q.** And the ED50 [26]?
**A.** 8.83 µM

**Q.** And the ED50 (Cullin-1 (Homo sapiens))?
**A.** 0.000443 µM

**Q.** What about the ED50 [27] of the same compound?
**A.** 26.2 µM

**Q.** And the ED50 [28]?
**A.** 0.00937 µM

**Q.** And the ED50 [29]?
**A.** 0.00758 µM

**Q.** And the ED50 [30]?
**A.** 4.89 µM

**Q.** What about the ED50 [31] of the same compound?
**A.** 0.535 µM

**Q.** What about the ED50 [32] of the same compound?
**A.** 1.13 µM

**Q.** And the ED50 [33]?
**A.** 0.0263 µM

**Q.** What about the ED50 [34] of the same compound?
**A.** 501 µM

**Q.** And the ED50 [35]?
**A.** 4.47 µM

**Q.** And the ED50 [36]?
**A.** 6.12 µM

**Q.** What about the ED50 [37] of the same compound?
**A.** 15.5 µM

**Q.** And the ED50 [38]?
**A.** 5.07 µM

**Q.** What about the ED50 [39] of the same compound?
**A.** 8.24 µM

**Q.** And the ED50 [40]?
**A.** 0.0089 µM

**Q.** What about the ED50 [41] of the same compound?
**A.** 11.4 µM

**Q.** And the ED50 [42]?
**A.** 13.9 µM

**Q.** And the IC50 (Ephrin type-B receptor 6)?
**A.** 4.48 µM
